Source: patent publication US9132140B2, “Boronic acid derivatives and therapeutic uses thereof” (Rempex Pharmaceuticals, Inc., priority 2013, dated 2015)

Assays:
KP1065 (VIM-1, SHV-11) = format: cell-based, Klebsiella pneumoniae
Description: (§1) Several strains simultaneously expressing both class A and class B carbapenemases, which were constructed using conjugation, were also included in the panel.

[1] = tested on: KP1084 (KPC-3, SHV-11, TEM-1); format: cell-based, Klebsiella pneumoniae
Description: as §1

KPM1109 (NDM, KPC) = format: cell-based, Klebsiella pneumoniae
Description: as §1

KPM1122 (NDM, VIM) = format: cell-based, Klebsiella pneumoniae
Description: as §1

KP1061 (KPC TEM SHV) = format: cell-based, Klebsiella pneumoniae
Description: as §1

KP1070 (KPC TEM SHV) = format: cell-based, Klebsiella pneumoniae
Description: as §1

KPM1099 (NDM, KPC) = format: cell-based, Klebsiella pneumoniae
Description: as §1

KP1098 (IMP-26 TEM SHV) = format: cell-based, Klebsiella pneumoniae
Description: as §1

[2] = tested on: KPM1346 (NDM-1 TEM SHV CTX-M-15 CMY); format: cell-based, Klebsiella pneumoniae
Description: as §1

KPM1107 (NDM, KPC) = format: cell-based, Klebsiella pneumoniae
Description: as §1

ECM6703 (pUCP24-NDM-1) = assay: microbe, parasite or virus in culture; format: cell-based, E. coli; conditions: Escherichia coli, read-out: Imipenem MIC Alone
ECLM1014 (NDM, KPC) = format: cell-based, Enterobacter cloacae
Description: as §1

[3] = tested on: ECL1057 (NDM-1, TEM-1, CTX-M-15); format: cell-based, Enterobacter cloacae
Description: as §1

ECLM1016 (NDM, KPC) = format: cell-based, Enterobacter cloacae
Description: as §1

ECL1036 (KPC) = format: cell-based, Enterobacter cloacae
Description: as §1

ECLM1018 (VIM, KPC) = format: cell-based, Enterobacter cloacae
Description: as §1

ECL1082 (VIM-1) = format: cell-based, Enterobacter cloacae
Description: as §1

ECLM1015 (NDM, KPC) = format: cell-based, Enterobacter cloacae
Description: as §1

ECL1055 (KPC) = format: cell-based, Enterobacter cloacae
Description: as §1

ECLM1013 (NDM, KPC) = format: cell-based, Enterobacter cloacae
Description: as §1

ECLM1019 (VIM, KPC) = format: cell-based, Enterobacter cloacae
Description: as §1

ECL1026 (KPC) = format: cell-based, Enterobacter cloacae
Description: as §1

ECLM1017 (VIM, KPC) = format: cell-based, Enterobacter cloacae
Description: as §1

ECL1045 (VIM-1) = format: cell-based, Enterobacter cloacae
Description: as §1

`C[C@@H](O)[C@H]1C(=O)N2C(C(=O)O)=C(SCCN=CN)C[C@H]12` [Imipenem, reference compound] was tested. Which “Carbapenem MIC alone” value (KP1065 (VIM-1, SHV-11)) did it give?
The value was “Y (key: X: MIC of less than 1 μg/mL; Y: MIC of 1 μg/mL to 10 μg/mL; Z: MIC of greater than 10 μg/mL)”.

And the “Carbapenem MIC alone” value [1]?
Its value is “Z (key: X: MIC of less than 1 μg/mL; Y: MIC of 1 μg/mL to 10 μg/mL; Z: MIC of greater than 10 μg/mL)”.

And the “Carbapenem MIC alone” value (KPM1109 (NDM, KPC))?
Its value is “Z (key: X: MIC of less than 1 μg/mL; Y: MIC of 1 μg/mL to 10 μg/mL; Z: MIC of greater than 10 μg/mL)”.

And the “Carbapenem MIC alone” value (KPM1122 (NDM, VIM))?
Its value is “Z (key: X: MIC of less than 1 μg/mL; Y: MIC of 1 μg/mL to 10 μg/mL; Z: MIC of greater than 10 μg/mL)”.

What about the “Carbapenem MIC alone” value (KP1061 (KPC TEM SHV)) of the same compound?
The value was “Z (key: X: MIC of less than 1 μg/mL; Y: MIC of 1 μg/mL to 10 μg/mL; Z: MIC of greater than 10 μg/mL)”.

What about the “Carbapenem MIC alone” value (KP1070 (KPC TEM SHV)) of the same compound?
Its value is “Z (key: X: MIC of less than 1 μg/mL; Y: MIC of 1 μg/mL to 10 μg/mL; Z: MIC of greater than 10 μg/mL)”.

And the “Carbapenem MIC alone” value (KPM1099 (NDM, KPC))?
Its value is “Z (key: X: MIC of less than 1 μg/mL; Y: MIC of 1 μg/mL to 10 μg/mL; Z: MIC of greater than 10 μg/mL)”.

What about the “Carbapenem MIC alone” value (KP1098 (IMP-26 TEM SHV)) of the same compound?
The value was “Y (key: X: MIC of less than 1 μg/mL; Y: MIC of 1 μg/mL to 10 μg/mL; Z: MIC of greater than 10 μg/mL)”.

And the “Carbapenem MIC alone” value [2]?
The value was “Z (key: X: MIC of less than 1 μg/mL; Y: MIC of 1 μg/mL to 10 μg/mL; Z: MIC of greater than 10 μg/mL)”.

And the “Carbapenem MIC alone” value (KPM1107 (NDM, KPC))?
The value was “Z (key: X: MIC of less than 1 μg/mL; Y: MIC of 1 μg/mL to 10 μg/mL; Z: MIC of greater than 10 μg/mL)”.

And the MIC (ECM6703 (pUCP24-NDM-1))?
Its MIC is > 1 µg/mL.

What about the “Carbapenem MIC alone” value (ECLM1014 (NDM, KPC)) of the same compound?
The value was “Y (key: X: MIC of less than 1 μg/mL; Y: MIC of 1 μg/mL to 10 μg/mL; Z: MIC of greater than 10 μg/mL)”.

And the “Carbapenem MIC alone” value [3]?
Its value is “Z (key: X: MIC of less than 1 μg/mL; Y: MIC of 1 μg/mL to 10 μg/mL; Z: MIC of greater than 10 μg/mL)”.

What about the “Carbapenem MIC alone” value (ECLM1016 (NDM, KPC)) of the same compound?
Its value is “Z (key: X: MIC of less than 1 μg/mL; Y: MIC of 1 μg/mL to 10 μg/mL; Z: MIC of greater than 10 μg/mL)”.

What about the “Carbapenem MIC alone” value (ECL1036 (KPC)) of the same compound?
The value was “Y (key: X: MIC of less than 1 μg/mL; Y: MIC of 1 μg/mL to 10 μg/mL; Z: MIC of greater than 10 μg/mL)”.

What about the “Carbapenem MIC alone” value (ECLM1018 (VIM, KPC)) of the same compound?
The value was “Z (key: X: MIC of less than 1 μg/mL; Y: MIC of 1 μg/mL to 10 μg/mL; Z: MIC of greater than 10 μg/mL)”.

What about the “Carbapenem MIC alone” value (ECL1082 (VIM-1)) of the same compound?
Its value is “Z (key: X: MIC of less than 1 μg/mL; Y: MIC of 1 μg/mL to 10 μg/mL; Z: MIC of greater than 10 μg/mL)”.

What about the “Carbapenem MIC alone” value (ECLM1015 (NDM, KPC)) of the same compound?
Its value is “Z (key: X: MIC of less than 1 μg/mL; Y: MIC of 1 μg/mL to 10 μg/mL; Z: MIC of greater than 10 μg/mL)”.

And the “Carbapenem MIC alone” value (ECL1055 (KPC))?
Its value is “Y (key: X: MIC of less than 1 μg/mL; Y: MIC of 1 μg/mL to 10 μg/mL; Z: MIC of greater than 10 μg/mL)”.

What about the “Carbapenem MIC alone” value (ECLM1013 (NDM, KPC)) of the same compound?
Its value is “Z (key: X: MIC of less than 1 μg/mL; Y: MIC of 1 μg/mL to 10 μg/mL; Z: MIC of greater than 10 μg/mL)”.

And the “Carbapenem MIC alone” value (ECLM1019 (VIM, KPC))?
Its value is “Z (key: X: MIC of less than 1 μg/mL; Y: MIC of 1 μg/mL to 10 μg/mL; Z: MIC of greater than 10 μg/mL)”.

And the “Carbapenem MIC alone” value (ECL1026 (KPC))?
Its value is “Y (key: X: MIC of less than 1 μg/mL; Y: MIC of 1 μg/mL to 10 μg/mL; Z: MIC of greater than 10 μg/mL)”.

What about the “Carbapenem MIC alone” value (ECLM1017 (VIM, KPC)) of the same compound?
The value was “Z (key: X: MIC of less than 1 μg/mL; Y: MIC of 1 μg/mL to 10 μg/mL; Z: MIC of greater than 10 μg/mL)”.

And the “Carbapenem MIC alone” value (ECL1045 (VIM-1))?
The value was “Y (key: X: MIC of less than 1 μg/mL; Y: MIC of 1 μg/mL to 10 μg/mL; Z: MIC of greater than 10 μg/mL)”.
